{"source": "paper PMC7127646", "about": "(Bioorganic & Medicinal Chemistry Letters, 2009)", "key": {"[1]": {"molecular_target": "T1, SARS-CoV helicase (Severe acute respiratory syndrome coronavirus, UniProt P0C6X7)", "assay_type": "biochemical"}, "[2]": {"molecular_target": "T1, SARS-CoV helicase", "assay_type": "biochemical", "remark": "listed apart in the source"}}, "data": [{"smiles": "O=c1c(O)c(-c2ccc3c(c2)OCO3)oc2cc(O)cc(O)c12", "note": "[Compound 3b, 2-Benzo[1,3]dioxol-5-yl-3,5,7-trihydroxy-chromen-4-one]", "values": [{"measurement": "inhibition of helicase ATPase activity (in words)", "setting": "[1]", "value": "failed to show any inhibition"}, {"measurement": "inhibition of duplex DNA-unwinding activity (in words)", "setting": "[2]", "value": "failed to show any inhibition"}]}]}
